Data taken from PubChem BioAssay (NCI).
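Exposure lasted 48 hours, with cells grown in 96-well plates and compounds tested at five concentrations. The concentration for full growth arrest is given as TGI.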

How the values were obtained:
Test in all cases: inhibition of tumour cell growth, NCI panel, 48 h
[1] = tested on: NCI-H226 lung
[2] = tested on: PC-3 prostate
[3] = tested on: KM12 colon
[4] = tested on: SF-295 CNS
[5] = tested on: ACHN renal
[6] = tested on: RXF 393 renal
[7] = tested on: U251 CNS
[8] = tested on: MCF7 breast
[9] = tested on: M14 melanoma
[10] = tested on: UO-31 renal
[11] = tested on: MDA-N
[12] = tested on: NCI/ADR-RES ovarian
[13] = tested on: SN12C renal
[14] = tested on: DU-145 prostate
[15] = tested on: HOP-92 NSCLC
[16] = tested on: UACC-62 melanoma
[17] = tested on: NCI-H460 lung
[18] = tested on: OVCAR-3 ovarian
[19] = tested on: UACC-257 melanoma
[20] = tested on: SK-MEL-28 melanoma
[21] = tested on: NCI-H522 lung
[22] = tested on: LOX IMVI melanoma
[23] = tested on: SK-OV-3 ovarian
[24] = tested on: SK-MEL-5 melanoma
[25] = tested on: CAKI-1 renal
[26] = tested on: SF-268 CNS
[27] = tested on: MDA-MB-435
[28] = tested on: 786-0 renal
[29] = tested on: T-47D breast
[30] = tested on: HS 578T breast
[31] = tested on: SW-620 colon
[32] = tested on: HOP-62 NSCLC
[33] = tested on: TK-10 renal
[34] = tested on: SF-539 CNS
[35] = tested on: HCC-2998 colon
[36] = tested on: SNB-19 CNS
[37] = tested on: OVCAR-4 ovarian
[38] = tested on: MALME-3M melanoma
[39] = tested on: RPMI-8226 leukemia
[40] = tested on: BT-549 breast
[41] = tested on: NCI-H23 lung
[42] = tested on: OVCAR-8 ovarian
[43] = tested on: HCT-15 colon
[44] = tested on: EKVX NSCLC
[45] = tested on: A498 renal
[46] = tested on: CCRF-CEM leukemia
[47] = tested on: HCT-116 colon
[48] = tested on: A549 NSCLC
[49] = tested on: SK-MEL-2 melanoma
[50] = tested on: HT29 colon
[51] = tested on: COLO 205 colon
[52] = tested on: MDA-MB-231 breast

Measured: TGI

CC(=O)c1c(C)n(C)c2c1nnc1ccccc12
50.3 µM: [44]
8.11 µM: [10]
86.3 µM: [8]
> 100 µM: all other assays above
